# Reference: patent publication US20240390295A1, “METHODS FOR TREATING DEPRESSION” (JANSSEN PHARMACEUTICA NV, priority 2020, published 2024)
# System: adult patients (aged 18-64 years) with TRD
# Assay: Maximum time to onset of clinician-reported adverse events by AE week 1/week 4 occurrence (Tables 5-16; modal dose 56, modal dose 84, Total)
# Format: in vivo, human
# Experimental: Patients were monitored for >90 minutes after ESK administration at each treatment session, after which time they could leave the clinical site at the clinician's discretion. AEs were monitored and reported, and safety assessments, including clinical laboratory tests and physical examinations, were conducted throughout the study. Clinician-reported AEs were categorized as mild, moderate, or severe based on clinical judgement (Table 1).
# Since flexible dosing (ESK 56 or 84 mg) was permitted in the studies and an individual patient's doses could change within dosing timeframes, patients were stratified by modal dose during the respective periods.
# The time to onset of the adverse events experienced by patients in Example 2 was analyzed. Tables 5-11 include the summary of specific adverse events by their respective categorized maximum time to Onset (i) across sessions 3-8 during Induction Phase by AE week 1 occurrence (Table 5), (ii) during Optimization Phase by AE week 1 occurrence (Table 6), (iii) during Optimization Phase by AE week 4 occurrence (Table 7), (iv) during Month 3-6 of Maintenance Phase by AE week 1 occurrence (Table 8), (v) Month 3-6 of Maintenance Phase by AE week 4 occurrence (Table 9), (vi) Month 6-12 of Maintenance Phase by AE week 1 occurrence (Table 10), and (vii) during Month 6-12 of Maintenance Phase by AE week 4 (Table 11).
# Tables 12-16 include the incidences of clinician-reported blood pressure (Table 12), clinician-reported dissociation (Table 13), dizziness (Table 14), sedation (Table 15), and vertigo (Table 16) spanning week 1 to month 12 using the data of Example 2.
# [1] = Based on Week 1, None, Month 3-6
# [2] = Based on Week 1, None, Month 6-12
# [3] = Based on Week 1, None, Weeks 2-4
# [4] = Based on Week 1, Once, Month 3-6
# [5] = Based on Week 1, Once, Month 6-12
# [6] = Based on Week 1, Once, Weeks 2-4
# [7] = Based on Week 1, Twice, Month 2
# [8] = Based on Week 1, Twice, Month 3-6
# [9] = Based on Week 1, Twice, Month 6-12
# [10] = Based on Week 1, Twice, Weeks 2-4
# [11] = Based on Week 1, incidence None, Month 2
# [12] = Based on Week 1, incidence None, Month 3-6
# [13] = Based on Week 1, incidence None, Month 6-12
# [14] = Based on Week 1, incidence None, Weeks 2-4
# [15] = Based on Week 1, incidence Once, Month 2
# [16] = Based on Week 1, incidence Once, Month 3-6
# [17] = Based on Week 1, incidence Once, Month 6-12
# [18] = Based on Week 1, incidence Once, Weeks 2-4
# [19] = Based on Week 1, incidence Twice, Month 2
# [20] = Based on Week 1, incidence Twice, Month 3-6
# [21] = Based on Week 1, incidence Twice, Month 6-12
# [22] = Based on Week 1, incidence Twice, Weeks 2-4
# [23] = Based on Week 4, None, Month 3-6
structure (smiles),measurement,setting,value
"CN[C@]1(c2ccccc2Cl)CCCCC1=O [esketamine, (S)-2-(2-chlorophenyl)-2-(methylamino)cyclohexanone]",Blood Pressure (clinician): 0-30 m,"Based on Week 1, None, Month 2",1
same,Blood Pressure (clinician): 31-60 m,"Based on Week 1, None, Month 2",12
same,Blood Pressure (clinician): 61-90 m,"Based on Week 1, None, Month 2",2
same,Blood Pressure (clinician): % >60 m,"Based on Week 1, None, Month 2",11.8%
same,Blood Pressure (clinician): TOTAL,"Based on Week 1, None, Month 2",17
same,Blood Pressure (clinician): n >60 m,"Based on Week 1, None, Month 2",2
same,Blood Pressure (clinician): 31-60 m,[1],13
same,Blood Pressure (clinician): 61-90 m,[1],1
same,Blood Pressure (clinician): % >60 m,[1],5.9%
same,Blood Pressure (clinician): TOTAL,[1],17
same,Blood Pressure (clinician): n >60 m,[1],1
same,Blood Pressure (clinician): 31-60 m,[2],8
same,Blood Pressure (clinician): 61-90 m,[2],1
same,Blood Pressure (clinician): % >60 m,[2],10%
same,Blood Pressure (clinician): TOTAL,[2],10
same,Blood Pressure (clinician): n >60 m,[2],1
same,Blood Pressure (clinician): 31-60 m,[3],20
same,Blood Pressure (clinician): 61-90 m,[3],1
same,Blood Pressure (clinician): % >60 m,[3],4.8%
same,Blood Pressure (clinician): TOTAL,[3],21
same,Blood Pressure (clinician): n >60 m,[3],1
same,Blood Pressure (clinician): 31-60 m,"Based on Week 1, Once, Month 2",9
same,Blood Pressure (clinician): % >60 m,"Based on Week 1, Once, Month 2",0%
same,Blood Pressure (clinician): TOTAL,"Based on Week 1, Once, Month 2",9
same,Blood Pressure (clinician): n >60 m,"Based on Week 1, Once, Month 2",0
same,Blood Pressure (clinician): 31-60 m,[4],4
same,Blood Pressure (clinician): % >60 m,[4],0%
same,Blood Pressure (clinician): TOTAL,[4],4
same,Blood Pressure (clinician): n >60 m,[4],0
same,Blood Pressure (clinician): 31-60 m,[5],1
same,Blood Pressure (clinician): % >60 m,[5],0%
same,Blood Pressure (clinician): TOTAL,[5],1
same,Blood Pressure (clinician): n >60 m,[5],0
same,Blood Pressure (clinician): 0-30 m,[6],1
same,Blood Pressure (clinician): 31-60 m,[6],11
same,Blood Pressure (clinician): 61-90 m,[6],1
same,Blood Pressure (clinician): % >60 m,[6],7.7%
same,Blood Pressure (clinician): TOTAL,[6],13
same,Blood Pressure (clinician): n >60 m,[6],1
same,Blood Pressure (clinician): 31-60 m,[7],10
same,Blood Pressure (clinician): % >60 m,[7],0%
same,Blood Pressure (clinician): TOTAL,[7],10
same,Blood Pressure (clinician): n >60 m,[7],0
same,Blood Pressure (clinician): 31-60 m,[8],3
same,Blood Pressure (clinician): 61-90 m,[8],1
same,Blood Pressure (clinician): % >60 m,[8],25%
same,Blood Pressure (clinician): TOTAL,[8],4
same,Blood Pressure (clinician): n >60 m,[8],1
same,Blood Pressure (clinician): 31-60 m,[9],2
same,Blood Pressure (clinician): % >60 m,[9],0%
same,Blood Pressure (clinician): TOTAL,[9],2
same,Blood Pressure (clinician): n >60 m,[9],0
same,Blood Pressure (clinician): 31-60 m,[10],12
same,Blood Pressure (clinician): 61-90 m,[10],1
same,Blood Pressure (clinician): % >60 m,[10],14.2%
same,Blood Pressure (clinician): >90 m,[10],1
same,Blood Pressure (clinician): TOTAL,[10],14
same,Blood Pressure (clinician): n >60 m,[10],2
same,"Dissociation (clinician), % >60 m",[11],0%
same,"Dizziness, % >60 m",[11],3.7%
same,"Sedation, % >60 m",[11],0%
same,"Vertigo, % >60 m",[11],4.2%
same,"Dissociation (clinician), % >60 m",[12],2.8%
same,"Dizziness, % >60 m",[12],2.9%
same,"Sedation, % >60 m",[12],11.8%
same,"Vertigo, % >60 m",[12],16.7%
same,"Dissociation (clinician), % >60 m",[13],4.5%
same,"Dizziness, % >60 m",[13],0%
same,"Sedation, % >60 m",[13],0%
same,"Vertigo, % >60 m",[13],11.1%
same,"Dissociation (clinician), % >60 m",[14],0%
same,"Dizziness, % >60 m",[14],4.3%
same,"Sedation, % >60 m",[14],15.8%
same,"Vertigo, % >60 m",[14],11.1%
same,"Dissociation (clinician), % >60 m",[15],4%
same,"Dizziness, % >60 m",[15],6.1%
same,"Sedation, % >60 m",[15],0%
same,"Vertigo, % >60 m",[15],15.8%
same,"Dissociation (clinician), % >60 m",[16],0%
same,"Dizziness, % >60 m",[16],0%
same,"Sedation, % >60 m",[16],0%
same,"Sedation, patients by time to onset",[16],0
same,"Vertigo, % >60 m",[16],16.7%
same,"Dissociation (clinician), % >60 m",[17],0%
same,"Dizziness, % >60 m",[17],0%
same,"Sedation, % >60 m",[17],0%
same,"Sedation, patients by time to onset",[17],0
same,"Vertigo, % >60 m",[17],0%
same,"Dissociation (clinician), % >60 m",[18],7.3%
same,"Dizziness, % >60 m",[18],5.4%
same,"Sedation, % >60 m",[18],57.1%
same,"Vertigo, % >60 m",[18],10.3%
same,"Dissociation (clinician), % >60 m",[19],0%
same,"Dizziness, % >60 m",[19],5.5%
same,"Sedation, % >60 m",[19],0%
same,"Vertigo, % >60 m",[19],0%
same,"Dissociation (clinician), % >60 m",[20],3%
same,"Dizziness, % >60 m",[20],2.9%
same,"Sedation, % >60 m",[20],0%
same,"Vertigo, % >60 m",[20],4%
same,"Dissociation (clinician), % >60 m",[21],0%
same,"Dizziness, % >60 m",[21],7.1%
same,"Sedation, % >60 m",[21],0%
same,"Vertigo, % >60 m",[21],0%
same,"Dissociation (clinician), % >60 m",[22],6.3%
same,"Dizziness, % >60 m",[22],7.9%
same,"Sedation, % >60 m",[22],16.7%
same,"Vertigo, % >60 m",[22],4.6%
same,Blood Pressure (clinician): 0-30 m,"Based on Week 4, None, Month 2",1
same,Blood Pressure (clinician): 31-60 m,"Based on Week 4, None, Month 2",13
same,Blood Pressure (clinician): 61-90 m,"Based on Week 4, None, Month 2",2
same,Blood Pressure (clinician): % >60 m,"Based on Week 4, None, Month 2",11.1%
same,Blood Pressure (clinician): TOTAL,"Based on Week 4, None, Month 2",18
same,Blood Pressure (clinician): n >60 m,"Based on Week 4, None, Month 2",2
same,Blood Pressure (clinician): 31-60 m,[23],13
same,Blood Pressure (clinician): 61-90 m,[23],1
same,Blood Pressure (clinician): % >60 m,[23],5.9%
same,Blood Pressure (clinician): TOTAL,[23],17
